Laboratory results published in patent US8349899B1 (Arrowhead Center, Inc., priority 2008, dated 2013).
Where two headings read alike, the source gives them in different places.

Tests used:
[1] = test system: HeLa cervical adenocarcinoma cells; test: bipolar spindle formation in HeLa cells; format: cell-based, human
Description: Biochemical- and cell-based assays were used to evaluate the inhibitory activities of the STLC analogs. Using a commercially available assay from Cytoskeleton, Inc, analogs were assayed for their ability to block the microtubule-activated ATPase activity of recombinant human EG5 motor domain. In parallel, HeLa cells were treated for four hours with a range of concentrations, and then fixed, stained for microtubules, and mitotic cells were scored for spindle bipolarity.

NCI60 tumor panel = NCI60 tumor panel growth inhibition, whole panel; format: cell-based
CCRF-CEM = test: NCI60 growth inhibition, Leukemia CCRF-CEM; format: cell-based; details: Homo sapiens
From the text: (§1) MSTCO was screened against the NCI60 tumor panel. Cell lines shown above represent lines common to all three screens, and growth inhibition is expressed as the concentration of drug (μM) that achieved 50% growth inhibition.

HL-60(TB) = test: cells; format: cell-based; details: Homo sapiens; Leukemia HL-60(TB)
K-562 = test: NCI60 growth inhibition, Leukemia K-562; format: cell-based; details: Homo sapiens, K562
From the text: as §1

MOLT-4 = test: NCI60 growth inhibition, Leukemia MOLT-4; format: cell-based; details: Homo sapiens
From the text: as §1

RPMI-8226 = test: NCI60 growth inhibition, Leukemia RPMI-8226; format: cell-based; details: Homo sapiens
From the text: as §1

SR = test: NCI60 growth inhibition, Leukemia SR; format: cell-based; details: Homo sapiens
From the text: as §1

A549/ATCC = test: NCI60 growth inhibition, Non-Small Cell Lung A549/ATCC; format: cell-based; details: Homo sapiens
From the text: as §1

EKVX = test: NCI60 growth inhibition, Non-Small Cell Lung EKVX; format: cell-based; details: Homo sapiens
From the text: as §1

HOP-62 = test: NCI60 growth inhibition, Non-Small Cell Lung HOP-62; format: cell-based; details: Homo sapiens
From the text: as §1

NCI-H226 = test: NCI60 growth inhibition, Non-Small Cell Lung NCI-H226; format: cell-based; details: Homo sapiens
From the text: as §1

NCI-H23 = test: NCI60 growth inhibition, Non-Small Cell Lung NCI-H23; format: cell-based; details: Homo sapiens
From the text: as §1

NCI-H322M = test: NCI60 growth inhibition, Non-Small Cell Lung NCI-H322M; format: cell-based; details: Homo sapiens
From the text: as §1

NCI-H522 = test: NCI60 growth inhibition, Non-Small Cell Lung NCI-H522; format: cell-based; details: Homo sapiens
From the text: as §1

COLO 205 = test: NCI60 growth inhibition, Colon COLO 205; format: cell-based; details: Homo sapiens
From the text: as §1

HCC-2998 = test: NCI60 growth inhibition, Colon HCC-2998; format: cell-based; details: Homo sapiens
From the text: as §1

HCT-116 = test: NCI60 growth inhibition, Colon HCT-116; format: cell-based; details: Homo sapiens
From the text: as §1

HCT-15 = test: NCI60 growth inhibition, Colon HCT-15; format: cell-based; details: Homo sapiens
From the text: as §1

HT29 = test: NCI60 growth inhibition, Colon HT29; format: cell-based; details: Homo sapiens, HT-29
From the text: as §1

KM12 = test: NCI60 growth inhibition, Colon KM12; format: cell-based; details: Homo sapiens
From the text: as §1

SW-620 = test: NCI60 growth inhibition, Colon SW-620; format: cell-based; details: Homo sapiens
From the text: as §1

SF-268 = test: NCI60 growth inhibition, Central Nervous System SF-268; format: cell-based; details: Homo sapiens
From the text: as §1

SF-295 = test: NCI60 growth inhibition, Central Nervous System SF-295; format: cell-based; details: Homo sapiens
From the text: as §1

SF-539 = test: NCI60 growth inhibition, Central Nervous System SF-539; format: cell-based; details: Homo sapiens
From the text: as §1

SNB-19 = test: NCI60 growth inhibition, Central Nervous System SNB-19; format: cell-based; details: Homo sapiens
From the text: as §1

SNB-75 = test: NCI60 growth inhibition, Central Nervous System SNB-75; format: cell-based; details: Homo sapiens
From the text: as §1

U251 = test: NCI60 growth inhibition, Central Nervous System U251; format: cell-based; details: Homo sapiens, U-251
From the text: as §1

LOX IMVI = test: NCI60 growth inhibition, Melanoma LOX IMVI; format: cell-based; details: Homo sapiens
From the text: as §1

MALME-3M = test: NCI60 growth inhibition, Melanoma MALME-3M; format: cell-based; details: Homo sapiens
From the text: as §1

M14 = test: NCI60 growth inhibition, Melanoma M14; format: cell-based
From the text: as §1

SK-MEL-2 = test: NCI60 growth inhibition, Melanoma SK-MEL-2; format: cell-based; details: Homo sapiens
From the text: as §1

SK-MEL-28 = test: NCI60 growth inhibition, Melanoma SK-MEL-28; format: cell-based; details: Homo sapiens
From the text: as §1

SK-MEL-5 = test: NCI60 growth inhibition, Melanoma SK-MEL-5; format: cell-based; details: Homo sapiens
From the text: as §1

UACC-257 = test: NCI60 growth inhibition, Melanoma UACC-257; format: cell-based; details: Homo sapiens
From the text: as §1

UACC-62 = test: NCI60 growth inhibition, Melanoma UACC-62; format: cell-based; details: Homo sapiens
From the text: as §1

IGROV1 = test: NCI60 growth inhibition, Ovarian IGROV1; format: cell-based; details: Homo sapiens, IGROV-1
From the text: as §1

OVCAR-3 = test: NCI60 growth inhibition, Ovarian OVCAR-3; format: cell-based; details: Homo sapiens
From the text: as §1

OVCAR-4 = test: NCI60 growth inhibition, Ovarian OVCAR-4; format: cell-based; details: Homo sapiens
From the text: as §1

OVCAR-5 = test: NCI60 growth inhibition, Ovarian OVCAR-5; format: cell-based; details: Homo sapiens
From the text: as §1

OVCAR-8 = test: NCI60 growth inhibition, Ovarian OVCAR-8; format: cell-based; details: Homo sapiens
From the text: as §1

SK-OV-3 = test: NCI60 growth inhibition, Ovarian SK-OV-3; format: cell-based; details: Homo sapiens
From the text: as §1

786-0 = test: NCI60 growth inhibition, Renal 786-0; format: cell-based; details: Homo sapiens
From the text: as §1

ACHN = test: NCI60 growth inhibition, Renal ACHN; format: cell-based; details: Homo sapiens
From the text: as §1

CAKI-1 = test: NCI60 growth inhibition, Renal CAKI-1; format: cell-based; details: Homo sapiens
From the text: as §1

SN12C = test: NCI60 growth inhibition, Renal SN12C; format: cell-based; details: Homo sapiens
From the text: as §1

TK-10 = test: NCI60 growth inhibition, Renal TK-10; format: cell-based; details: Homo sapiens
From the text: as §1

UO-31 = test: NCI60 growth inhibition, Renal UO-31; format: cell-based; details: Homo sapiens
From the text: as §1

For `COc1ccc(C(SC[C@H](N)CO)(c2ccccc2)c2ccccc2)cc1` [Compound 1.0, 2-amino-3-[(4-methoxy-phenyl)-diphenyl-methylsulfanyl]-propan-1-ol], the “inhibitory activity in the cell-based assay” value ([1]; HeLa bipolar spindle formation) was “best performing analog”, the IC50 ([1]; Homo sapiens, HeLa, 4 h, read-out: Bipolar spindle formation IC50) was 180 nM and the “anti-proliferative activity, initial single-dose screen” value (NCI60 tumor panel; 60 cancer cell lines, single dose 10 μM) was “promising activity”. For the same compound, the “average increase in activity over Monastrol” value (NCI60 tumor panel; GI50, average over cell lines) was 143 fold, the “average increase in activity over STLC” value (NCI60 tumor panel; GI50, average over cell lines) was 35 fold and the GI50 (NCI60 tumor panel; read-out: average GI50) was 360 nM. The GI50 (NCI60 tumor panel; read-out: highest GI50 of the range over the panel) was 3000 nM, the GI50 (NCI60 tumor panel; read-out: lowest GI50 of the range over the panel) was 20 nM and the GI50 (CCRF-CEM) was 100 nM. For the same compound, the GI50 (HL-60(TB)) was 190 nM, the GI50 (K-562) was 60 nM and the GI50 (MOLT-4) was 280 nM. The GI50 (RPMI-8226) was 30 nM, the GI50 (SR) was 10 nM and the GI50 (A549/ATCC) was 330 nM. For the same compound, the GI50 (EKVX) was 510 nM, the GI50 (HOP-62) was 510 nM and the GI50 (NCI-H226) was 2750 nM. It also gave a GI50 (NCI-H23) of 260 nM, a GI50 (NCI-H322M) of 110 nM and a GI50 (NCI-H522) of 220 nM. It also gave a GI50 (COLO 205) of 80 nM, a GI50 (HCC-2998) of 50 nM and a GI50 (HCT-116) of 30 nM. For the same compound, the GI50 (HCT-15) was 210 nM, the GI50 (HT29) was 340 nM and the GI50 (KM12) was 220 nM. It also gave a GI50 (SW-620) of 70 nM, a GI50 (SF-268) of 110 nM and a GI50 (SF-295) of 280 nM. The GI50 (SF-539) was 260 nM, the GI50 (SNB-19) was 250 nM and the GI50 (SNB-75) was 260 nM. The GI50 (U251) was 190 nM, the GI50 (LOX IMVI) was 490 nM and the GI50 (MALME-3M) was 360 nM. The GI50 (M14; Homo sapiens, Melanoma M14) was 20 nM, the “increase in activity over STLC” value (M14; melanoma cell line M14, GI50) was 20 fold and the “increase in activity over monastrol” value (M14; melanoma cell line M14, GI50) was 1200 fold. The GI50 (SK-MEL-2) was 240 nM, the GI50 (SK-MEL-28) was 620 nM and the GI50 (SK-MEL-5) was 60 nM. For the same compound, the GI50 (UACC-257) was 540 nM, the GI50 (UACC-62) was 250 nM and the GI50 (IGROV1) was 260 nM. It also gave a GI50 (OVCAR-3) of 200 nM, a GI50 (OVCAR-4) of 1620 nM and a GI50 (OVCAR-5) of 390 nM. The GI50 (OVCAR-8) was 420 nM, the GI50 (SK-OV-3) was 80 nM and the GI50 (786-0) was 440 nM. It also gave a GI50 (ACHN) of 490 nM, a GI50 (CAKI-1) of 450 nM and a GI50 (SN12C) of 320 nM. The GI50 (TK-10) was 460 nM and the GI50 (UO-31) was 1100 nM.
